Experimental data: patent US20250090563A1, “COMPOSITION FOR PREVENTION, AMELIORATION OR TREATMENT OF INFLAMMATORY BOWEL DISEASE COMPRISING GALACTO-OLIGOSACCHARIDE” (NEO CREMAR CO., LTD., priority 2022, published 2025)

Legend:
[1] = test system: mice with DSS-induced colitis; test: Disease activity index (DAI) in DSS-induced acute colitis model; type: in vivo, BALB/c mice
Protocol: For use in this experiment, female BALB/c mice (7 weeks old) were purchased from Saeronbio Inc. (Gyeonggi-do, Korea) and acclimatized for 7 days under SPF conditions at Kyonggi University (temperature 23±2° C., humidity 50±5%, 12-hour light/dark cycle). All experiments adhered to the guidelines of the university's Animal Ethics Committee. An acute colitis model was induced using dextran sodium sulfate (DSS). Mice were divided into seven groups of seven mice each. 1) A normal control group received purified water orally for 28 days. 2) A colitis group received purified water for 28 days and 5% DSS solution freely from days 21 to 28 to induce colitis. […] On the 29th day, each mouse was sacrificed, and the length of the colon and small intestine and the weight of the spleen were measured and evaluated. […] During the DSS treatment, colitis severity was determined using the disease activity index (DAI), which measures weight loss, stool consistency, rectal bleeding, and perianal blood presence according to the criteria in Table 3. After monitoring with the naked eye every two days for eight days, the scores were summed and calculated. […]

[2] = test system: mice with DSS-induced colitis; test: Colon length in DSS-induced acute colitis model; type: in vivo, BALB/c mice
Protocol: For use in this experiment, female BALB/c mice (7 weeks old) were purchased from Saeronbio Inc. (Gyeonggi-do, Korea) and acclimatized for 7 days under SPF conditions at Kyonggi University (temperature 23±2° C., humidity 50±5%, 12-hour light/dark cycle). All experiments adhered to the guidelines of the university's Animal Ethics Committee. An acute colitis model was induced using dextran sodium sulfate (DSS). Mice were divided into seven groups of seven mice each. 1) A normal control group received purified water orally for 28 days. 2) A colitis group received purified water for 28 days and 5% DSS solution freely from days 21 to 28 to induce colitis. […] In addition, to colitis-induced mice, the galacto-oligosaccharides from 5) company A and 6) company B were each administered at a dose of 800 mg/kg for 28 days while 7) the positive control group was administered 100 mg/kg of the anti-inflammatory agent 5-ASA (5-aminosalicylic acid) for 28 days. On the 29th day, each mouse was sacrificed, and the length of the colon and small intestine and the weight of the spleen were measured and evaluated. After measurement, the colon tissue was cut into 1 cm lengths, and the cecum was excised and placed into separate Ep. tubes for storage in a deep freezer for future experiments. Portions of the remaining colon tissue were fixed in a 4% formalin solution. […]

IL-6 = IL-6 level in colon tissue of DSS-induced colitis mice; type: in vivo, BALB/c mice
Protocol: (§1) Mice were divided into seven groups of seven mice each. 1) A normal control group received purified water orally for 28 days. 2) A colitis group received purified water for 28 days and 5% DSS solution freely from days 21 to 28 to induce colitis. The galacto-oligosaccharide of the present disclosure was administered at a dose of 3) 400 mg/kg and 4) 800 mg/kg to two groups of colitis-induced mice, respectively, for 28 days. In addition, to colitis-induced mice, the galacto-oligosaccharides from 5) company A and 6) company B were each administered at a dose of 800 mg/kg for 28 days while 7) the positive control group was administered 100 mg/kg of the anti-inflammatory agent 5-ASA (5-aminosalicylic acid) for 28 days. On the 29th day, each mouse was sacrificed, and the length of the colon and small intestine and the weight of the spleen were measured and evaluated. After measurement, the colon tissue was cut into 1 cm lengths, and the cecum was excised and placed into separate Ep. tubes for storage in a deep freezer for future experiments. […]
(§2) First, colon tissue samples were suspended in PBS containing a protease inhibitor (Roche Diagnostics Corp., Indianapolis, IN, USA) and homogenized uniformly using a TaKaRa BioMasher (Takara Bio Inc., Shiga, Japan). […] Protein concentration was quantified using a bicinchoninic acid kit (Thermo Scientific, Waltham, MA, USA).

TNF-α = TNF-α level in colon tissue of DSS-induced colitis mice; type: in vivo, BALB/c mice
Protocol: as §1, §2

myeloperoxidase (MPO) = test: MPO level in colon tissue of DSS-induced colitis mice; type: in vivo, BALB/c mice; details: 100 mg/kg for 28 days (positive control)
Protocol: as §1, §2

[3] = test system: mucin and goblet cells in the colon; test: Histological analysis of colon (Alcian blue-PAS staining) in DSS-induced colitis mice; type: in vivo, BALB/c mice; details: colon sections, FIG. 9; dose not stated
[4] = test system: intestinal short chain fatty acids; test: Short chain fatty acid (SCFA) production in cecum of DSS-induced mice (GC); type: in vivo
Protocol: To determine the effect of administering the galacto-oligosaccharide of the present disclosure on the intestinal short chain fatty acids in DSS-induced mice, 5-ASA and the GOS of the present disclosure were administered at low (7 mg/mouse), medium (14 mg/mouse), and high (21 mg/mouse) concentrations to DSS-induced mice according to the schedule described in Example 3-1. Afterward, the cecums of the mice were collected, homogenized with a homogenizer, and suspended in 80% methanol. The samples were then centrifuged at 13,000 rpm for 10 minutes, diluted to a final concentration of 1 g/mL, and filtered through a 0.45 μm syringe filter. Quantitative analysis of SCFAs was performed by preparing each STD at different concentrations and using 2-ethylbutyric acid as the internal standard (ISTD). The standard curves were calculated based on the peak area ratios. In brief, the SCFA content was measured using gas chromatography (GC) equipped with a DB-FFAP capillary column to determine the production capacity of six SCFAs (acetic acid, propionic acid, butyric acid, valeric acid, caproic acid, and heptanoic acid). The GC analysis conditions were as follows: 100° C. (0.5 min), 100° C.→180° C. (8° C./min), 180° C. (1.0 min), 180° C.→200° C. (20° C./min), 200° C. (5.0 min).

[5] = 100 mg/kg (positive control), DSS colitis mice
[6] = 100 mg/kg for 28 days (positive control), 5% DSS days 21-28
[7] = 100 mg/kg for 28 days (positive control), DSS colitis
[8] = PC, dose 100 mg/kg, DSS-induced mice

Nc1ccc(O)c(C(=O)O)c1 [5-ASA, 5-aminosalicylic acid]
Colitis amelioration effect (DAI), in words [1, 5]: did not show any colitis amelioration effect
Disease Activity Index of 8 day (Score) [1, 6]: 10.3 Score
Inhibition of the reduction of colon length, in words [2, 5]: showed an efficacy in inhibiting the reduction of colon length
Colon length [2, 6]: 5.2 cm
Level of IL-6 versus DSS group, in words (IL-6; [5]): greatly reduced
IL-6 (IL-6; [7]): 12 pg/mg
Level of TNF-α versus DSS group, in words (TNF-α; [5]): greatly reduced
TNF-α (TNF-α; [7]): 100 pg/mg
MPO (myeloperoxidase (MPO)): 45 pg/mg
Amount of mucin (Alcian blue-PAS) compared to the DSS-treated group [3]: the amount of mucin recovered
Goblet cells compared to the DSS-treated group [3]: goblet cells were observed
All SCFAs except acetic acid compared to the NC treated with 5% DSS alone, in words ([4]; PC group, cecum): slight increase
Acetic acid, share of total SCFA (value in parentheses) [4, 8]: 73.3
Acetic acid, short chain fatty acid production in cecum [4, 8]: 8917 µM
Butyric acid, share of total SCFA (value in parentheses) [4, 8]: 15.8
Butyric acid, short chain fatty acid production in cecum [4, 8]: 1923 µM
Propionic acid, share of total SCFA (value in parentheses) [4, 8]: 10.9
Propionic acid, short chain fatty acid production in cecum [4, 8]: 1321 µM
Total SCFA, share of total SCFA (value in parentheses) [4, 8]: 100
Total SCFA, short chain fatty acid production in cecum [4, 8]: 12161 µM
